Experimental data taken from the supplement of paper PMC10307832.

Tests used:
Experiment in all cases: relative viability (nuclei count vs DMSO), 5 days (fraction); higher = more cells survive
[1] = compound: CC[C@@H]1C(=O)N(C)c2cnc(Nc3ccc(C(=O)NC4CCN(C)CC4)cc3OC)nc2N1C1CCCC1 [BI-2536] + COc1cc2c(Oc3ccc(NC(=O)C4(C(=O)Nc5ccc(F)cc5)CC4)cc3F)ccnc2cc1OCCCN1CCOCC1 [Foretinib] (partner 0.25 µM)
How it was run: (§1)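 Lung cancer cell lines, seeded in 1536-well plates, were treated the following day by pin tool with a single drug or with five library-drug doses (not always all listed) in √10 steps on top of a fixed anchor-drug dose. Cells were fixed and nuclei stained in one step after 5 days, and nuclei were counted. Relative viability is the nuclei count for treated wells divided by that for vehicle wells, reported as medians of duplicate plates.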

[2] = compound: CC[C@@H]1C(=O)N(C)c2cnc(Nc3ccc(C(=O)NC4CCN(C)CC4)cc3OC)nc2N1C1CCCC1 [BI-2536] + N=C(N)NC(=N)NCCc1ccccc1 [Phenformin] (partner 250 µM)
How it was run: as §1

[3] = compound: CC1CC(=O)N(C2=CN=C(N=C2N1C3CCCC3)NC4=C(C=C(C=C4)C(=O)NC5CCN(CC5)C)OC)C [NPK76-II-72-1] + Cc1nc(Nc2ncc(C(=O)Nc3c(C)cccc3Cl)s2)cc(N2CCN(CCO)CC2)n1 [Dasatinib] (partner 0.075 µM)
How it was run: as §1

[4] = compound: CC1CC(=O)N(C2=CN=C(N=C2N1C3CCCC3)NC4=C(C=C(C=C4)C(=O)NC5CCN(CC5)C)OC)C [NPK76-II-72-1] + Cc1nc(NC(=O)N2CCC[C@H]2C(N)=O)sc1-c1ccnc(C(C)(C)C(F)(F)F)c1 [Alpelisib] (partner 2 µM)
How it was run: as §1

Cell Line	relative viability ([1]; first compound 0.01 µM)	relative viability ([1]; first compound 0.03162 µM)	relative viability ([1]; first compound 0.1 µM)	relative viability ([1]; first compound 0.3162 µM)	relative viability ([1]; first compound 1 µM)	relative viability ([2]; first compound 0.01 µM)	relative viability ([2]; first compound 0.03162 µM)	relative viability ([2]; first compound 0.1 µM)	relative viability ([2]; first compound 0.3162 µM)	relative viability ([2]; first compound 1 µM)	relative viability ([3]; first compound 0.01 µM)	relative viability ([3]; first compound 0.03162 µM)	relative viability ([3]; first compound 0.1 µM)	relative viability ([3]; first compound 0.3162 µM)	relative viability ([3]; first compound 1 µM)	relative viability ([4]; first compound 0.01 µM)	relative viability ([4]; first compound 0.03162 µM)	relative viability ([4]; first compound 0.1 µM)	relative viability ([4]; first compound 0.3162 µM)	relative viability ([4]; first compound 1 µM)
COR-L 105	1.12	0.848	0.913	0.366	0.344	0.507	0.483	0.311	0.215	0.21	0.33	0.317	0.384	0.323	0.467	0.908	0.907	1.13	0.905	1.13
EKVX	0.702	0.833	0.755	0.237	1.08	0.242	0.224	0.225	0.242	0.211	0.58	0.528	0.519		0.652	0.796	0.897	0.884	0.716	1.1
EMC-BAC-2	1.03	1.18	0.947	0.202	0.194	0.547	0.477	0.352	0.155	0.208	0.345	0.295	0.346	0.333	0.367	0.723	0.764	0.786	0.668	0.774
EPLC-272H	0.715	0.0998	0.0735	0.0644	0.0639	0.241	0.28	0.105	0.109	0.103	0.318		0.332	0.251	0.357	0.854	0.88	0.964	0.928	0.88
H3255	0.769	1.03	0.49	0.261	0.218	0.3	0.318	0.306	0.268	0.329	0.406	0.314	0.323	0.245	0.35	0.683	0.663	0.721		0.934
HARA	0.97	1.07	0.746	0.0569	0.0893	0.511	0.55	0.376	0.049	0.0462	0.254	0.233	0.168	0.237	0.219	0.783	0.975	0.822	0.523	0.983
HCC-15	0.854	0.648	0.361	0.137	0.143	0.474	0.485	0.149	0.103	0.108	0.598	0.637	0.599	0.642	0.649	0.828	0.965	0.875	0.919	0.97
HCC-78	0.554	0.505	0.534	0.402	0.226	0.74	0.721	0.636	0.315	0.197	0.384	0.363	0.449	0.346	0.402		0.402	0.334		0.337
